Results: patent US20130296311A1, “INHIBITORS OF HCV NS5A” (PRESIDIO PHARMACEUTICALS, INC., priority 2010, published 2013)

System: HCV 1b_Huh-Luc/Neo-ET cell line persistently expressing a bicistronic genotype 1b replicon in Huh 7 cells
Assay: HCV replicon assay (luciferase readout, 72 h)
Assay type: cell-based, HCV genotype 1b
Settings: Hepatitis C virus, Huh-7, 72 h, read-out: Inhibition of HCV genotype 1b
Summary of the method: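 EC50 values come from a four-parameter fit of luciferase signal as % of untreated control, repeated across several determinations. The signal is from the HCV 1b_Huh-Luc/Neo-ET replicon line, dosed in triplicate one day post-plating and incubated 72 h before Bright-Glo readout.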

CC[C@@H](C)[C@H](NC(=O)OC)C(=O)N1CCC[C@H]1c1ncc(-c2ccc(C#Cc3ccc4nc([C@@H]5CCCN5C(=O)[C@@H](NC(=O)OC)[C@H](C)CC)[nH]c4c3)cc2)[nH]1 [Compound 1024] and COC(=O)N[C@H](C(=O)N1CCCC[C@H]1c1ncc(-c2ccc(C#Cc3ccc4nc([C@@H]5CCCN5C(=O)[C@@H](NC(=O)OC)C(C)C)[nH]c4c3)cc2)[nH]1)C(C)C [Compound 1032] cannot be ordered by EC50: under 1 nM for the first, under 1 nM for the second.

COC(=O)N[C@H](C(=O)N1CCC[C@H]1c1ncc(-c2ccc(C#Cc3ccc(-c4cnc([C@@H]5CCCN5C(=O)[C@H](NC(=O)N5CCC(C)(O)CC5)c5ccccc5)[nH]4)cc3)cc2)[nH]1)C(C)C [Compound 992] and COC(=O)N[C@@H](C)C(=O)N1CCC[C@H]1c1ncc(-c2ccc(C#Cc3ccc(-c4cnc([C@@H]5CCCN5C(=O)[C@H](NC(=O)OC)c5ccccc5)[nH]4)cc3)cc2)[nH]1 [Compound 1004] cannot be ordered by EC50: under 1 nM for the first, under 1 nM for the second.

COC(=O)N[C@H](C(=O)N1CSC[C@H]1c1ncc(-c2ccc(C#Cc3ccc4nc([C@@H]5CCCN5C(=O)[C@@H](NC(=O)OC)C(C)C)[nH]c4c3)cc2)[nH]1)C(C)C [Compound 1026] and COC(=O)N[C@H](C(=O)N1CC[C@H](O)[C@H]1c1ncc(-c2ccc(C#Cc3ccc4nc([C@@H]5CCCN5C(=O)[C@@H](NC(=O)OC)C(C)C)[nH]c4c3)cc2)[nH]1)C(C)C [Compound 1068] cannot be ordered by EC50: under 1 nM for the first, under 1 nM for the second.

COC(=O)N[C@@H](C(=O)N1CCC[C@H]1c1ncc(C#Cc2ccc(C#Cc3cnc([C@@H]4CCCN4C(=O)[C@@H](c4ccccc4)N4CCCC4)[nH]3)cc2)[nH]1)c1ccccc1 [Compound 311] and COC(=O)N[C@@H](C(=O)N1CCC[C@H]1c1ncc(C#Cc2ccc(C#Cc3cnc([C@@H]4CCCN4C(=O)[C@@H](c4ccccc4)N4CCCCC4)[nH]3)cc2)[nH]1)c1ccccc1 [Compound 312] cannot be ordered by EC50: under 1 nM for the first, under 1 nM for the second.

COC(=O)N[C@H](C(=O)N1CCC[C@H]1c1ncc(-c2ccc(C#Cc3ccc4nc([C@@H]5CCCN5C(=O)[C@@H](c5ccccc5)N(C)C)[nH]c4c3)cc2)[nH]1)C(C)C [Compound 860] and COC(=O)N[C@H](C(=O)N1CCC[C@H]1c1ncc(-c2ccc(C#Cc3ccc4nc([C@@H]5CCCN5C(=O)[C@H](C(C)C)N(C)C)[nH]c4c3)cc2)[nH]1)C(C)C [Compound 1021] cannot be ordered by EC50: under 1 nM for the first, under 1 nM for the second.

COC(=O)N[C@H](C(=O)N[C@@H](C)c1ncc(-c2ccc(C#Cc3ccc(-c4cnc([C@H](C)NC(=O)[C@@H](NC(=O)OC)C(C)C)[nH]4)cc3)cc2)[nH]1)C(C)C [Compound 951] and COC(=O)N[C@H](C(=O)N1CCC[C@H]1c1ncc(-c2ccc(C#Cc3ccc(-c4cnc([C@H](C)NC(=O)[C@@H](c5ccccc5)N(C)C)[nH]4)cc3)cc2)[nH]1)C(C)C [Compound 983] cannot be ordered by EC50: under 1 nM for the first, under 1 nM for the second.

COC(=O)N[C@@H](C(=O)N1CCC[C@H]1c1ncc(-c2ccc(C#Cc3ccc(-c4cnc([C@@H]5CCCN5C(=O)N5CCOCC5)[nH]4)cc3)cc2)[nH]1)c1ccccc1 [Compound 198] and COC(=O)N[C@@H](C(=O)N1CCC[C@H]1c1ncc(-c2ccc(C#Cc3ccc(-c4cnc([C@@H]5CCCN5C(=O)C5CCN(C)CC5)[nH]4)cc3)cc2)[nH]1)c1ccccc1 [Compound 182] cannot be ordered by EC50: under 1 nM for the first, under 1 nM for the second.

COC(=O)N[C@@H](C(=O)N1CCC[C@H]1c1ncc(C#Cc2ccc(C#Cc3cnc([C@@H]4CCCN4C(=O)[C@@H](c4ccccc4)N4CCOCC4)[nH]3)cc2)[nH]1)c1ccccc1 [Compound 313] and COC(=O)N[C@@H](C(=O)N1CCC[C@H]1c1ncc(-c2ccc(C#Cc3ccc(-c4cnc([C@@H]5CCCN5C(=O)[C@@H](c5ccccc5)N5CCCCC5)[nH]4)cc3)cc2)[nH]1)c1ccccc1 [Compound 188] cannot be ordered by EC50: under 1 nM for the first, under 1 nM for the second.

COC(=O)N[C@H](C(=O)N1CCC[C@H]1c1ncc(C#Cc2ccc(-c3ccc(-c4cnc([C@@H]5CCCN5C(=O)[C@@H](NC(=O)OC)C(C)C)[nH]4)cc3)cc2)[nH]1)C(C)C [Compound 756] and COC(=O)N[C@H](C(=O)N1CCC[C@H]1c1ncc(C#Cc2ccc3cc(C#Cc4cnc([C@@H]5CCCN5C(=O)[C@@H](NC(=O)OC)C(C)C)[nH]4)ccc3c2)[nH]1)C(C)C [Compound 1114] cannot be ordered by EC50: under 1 nM for the first, under 1 nM for the second.

COC(=O)NC1(C(=O)N2CCC[C@H]2c2ncc(-c3ccc(C#Cc4ccc5nc([C@@H]6CCCN6C(=O)C6(NC(=O)OC)CC6)[nH]c5c4)cc3)[nH]2)CC1 [Compound 1043] and COC(=O)N[C@H](CC(=O)N1CCC[C@H]1c1ncc(-c2ccc(C#Cc3ccc4nc([C@@H]5CCCN5C(=O)C[C@@H](NC(=O)OC)C(C)C)[nH]c4c3)cc2)[nH]1)C(C)C [Compound 1065] fall in the same range of EC50: 10 to 999 nM for the first, 10 to 999 nM for the second.

COC(=O)N[C@@H](C(=O)N1CCC[C@H]1CNC(=O)c1ccc(C#Cc2ccc(-c3cnc([C@@H]4CCCN4C(=O)[C@H](NC(=O)OC)c4ccccc4)[nH]3)cc2)cc1)c1ccccc1 [Compound 211] and O=C(NC[C@@H]1CCCN1C(=O)[C@H](NC(=O)C1CC1)c1ccccc1)c1ccc(C#Cc2ccc(-c3cnc([C@@H]4CCCN4C(=O)[C@H](NC(=O)C4CC4)c4ccccc4)[nH]3)cc2)cc1 [Compound 193] cannot be ordered by EC50: under 1 nM for the first, under 1 nM for the second.

First: C(#Cc1ccc2nc([C@@H]3CCCN3)[nH]c2c1)c1ccc(-c2cnc([C@@H]3CCCN3)[nH]2)cc1 [Compound 1035]
Second: C(#Cc1ccc2nc([C@@H]3CCCN3Cc3ccccc3)[nH]c2c1)c1ccc(-c2cnc([C@@H]3CCCN3Cc3ccccc3)[nH]2)cc1 [Compound 1052]
The EC50 of the first is lower: 10 to 999 nM for the first, over 1000 nM for the second.

First: COC(=O)N[C@H](C(=O)N1CCC[C@H]1c1ncc(-c2ccc(C#Cc3ccc(-c4cnc([C@@H]5CCCN5C(=O)[C@@H](Nc5ncccn5)C(C)C)[nH]4)cc3)cc2)[nH]1)C(C)C [Compound 1003]
Second: CC(C)[C@H](NC(=O)N1CCC(C)(O)CC1)C(=O)N1CCC[C@H]1c1ncc(-c2ccc(C#Cc3ccc(-c4cnc([C@@H]5CCCN5C(=O)[C@@H](NC(=O)N5CCC(C)(O)CC5)C(C)C)[nH]4)cc3)cc2)[nH]1 [Compound 966]
The EC50 of the first is lower: under 1 nM for the first, 10 to 999 nM for the second. The first is the more potent here.

COC[C@H]1CCCN1C(=O)N[C@@H](C(=O)N1CCC[C@H]1c1ncc(-c2ccc(C#Cc3ccc(-c4cnc([C@@H]5CCCN5C(=O)[C@H](NC(=O)OC)c5ccccc5)[nH]4)cc3)cc2)[nH]1)c1ccccc1 [Compound 259] and COC(=O)N[C@@H](C(=O)N1CCC[C@H]1c1ncc(-c2ccc(C#Cc3ccc(-c4cnc([C@@H]5CCCN5C(=O)[C@H](NS(C)(=O)=O)c5ccccc5)[nH]4)cc3)cc2)[nH]1)c1ccccc1 [Compound 225] cannot be ordered by EC50: under 1 nM for the first, under 1 nM for the second.

Compared with COC(=O)N1CCC[C@H]1C(=O)N1CCC[C@H]1c1ncc(-c2ccc(C#Cc3ccc4nc([C@@H]5CCCN5C(=O)[C@@H]5CCCN5C(=O)OC)[nH]c4c3)cc2)[nH]1 [Compound 1063], COC(=O)N[C@H](C(=O)N1CCC[C@H]1c1nc2ccc3cc(C#Cc4ccc(-c5cnc([C@@H]6CCCN6C(=O)[C@H](NC(=O)OC)c6ccccc6)[nH]5)cc4)ccc3c2[nH]1)C(C)C [Compound 1093] is lower in EC50: 10 to 999 nM for the first, under 1 nM for the second.

First: O=C([C@@H](c1ccccc1)N1CCCC1)N1CCC[C@H]1c1ncc(-c2ccc(C#Cc3ccc(-c4cnc([C@@H]5CCCN5C(=O)[C@@H](c5ccccc5)N5CCCC5)[nH]4)cc3)cc2)[nH]1 [Compound 194]
Second: O=C(N[C@@H](C(=O)N1CCC[C@H]1c1ncc(C#Cc2ccc(-c3cnc([C@@H]4CCCN4C(=O)[C@H](NC(=O)N4CCOCC4)c4ccccc4)[nH]3)cc2)[nH]1)c1ccccc1)N1CCOCC1 [Compound 102]
The EC50 of the first is lower: under 1 nM for the first, 1 to 9.9 nM for the second.

COC(=O)N[C@@H](C(=O)N1CCC[C@H]1c1ncc(C#Cc2ccc3nc([C@@H]4CCCN4C(=O)[C@H](NC(=O)OC)c4ccccc4)[nH]c3c2)[nH]1)c1ccccc1 [Compound 700] and CC(C)(C)OC(=O)N[C@@H](C(=O)N1CCC[C@H]1c1ncc(-c2ccc(C#Cc3ccc4nc([C@@H]5CCCN5C(=O)[C@H](NC(=O)OC(C)(C)C)c5ccccc5)[nH]c4c3)cc2)[nH]1)c1ccccc1 [Compound 801] cannot be ordered by EC50: under 1 nM for the first, under 1 nM for the second.

First: C[C@@H](NC(=O)OC(C)(C)C)C(=O)N1CCC[C@H]1c1ncc(C#Cc2ccc(-c3cnc([C@@H]4CCCN4C(=O)[C@@H](C)NC(=O)OC(C)(C)C)[nH]3)cc2)[nH]1 [Compound 104]
Second: CC(C)[C@H](NC(=O)N1CCOCC1)C(=O)N1CCC[C@H]1c1ncc(-c2ccc(C#Cc3ccc(-c4cnc([C@@H]5CCCN5C(=O)[C@@H](NC(=O)N5CCOCC5)C(C)C)[nH]4)cc3)cc2)[nH]1 [Compound 285]
The EC50 of the first is lower: 1 to 9.9 nM for the first, over 1000 nM for the second. The first is the more potent here.

Same assay, conditions: Hepatitis C virus, Huh-7, read-out: Inhibition of HCV genotype 1b

COC(=O)N[C@H](C(=O)N1CCC[C@H]1c1nc2ccc(C#Cc3ccc(-c4cnc([C@@H]5CCCN5C(=O)[C@@H](NC(=O)OC)[C@@H](C)OC)[nH]4)cc3)cc2[nH]1)C(C)C [Compound 1235] and COC(=O)N[C@H](C(=O)N1CCC[C@H]1c1ncc(-c2ccc(C#Cc3ccc4nc([C@@H]5CCCN5C(=O)[C@@H](NC(=O)OC)[C@@H](C)OC)[nH]c4n3)cc2)[nH]1)[C@@H](C)OC [Compound 1252] cannot be ordered by EC50: under 1 nM for the first, under 1 nM for the second.

COC(=O)N[C@H](C(=O)N1CCC[C@H]1c1nc2ccc3cc(C#Cc4ccc5nc([C@@H]6CCCN6C(=O)[C@@H](NC(=O)OC)C6CCOCC6)[nH]c5c4)ccc3c2[nH]1)C(C)C [Compound 1274] and COC(=O)N[C@H](C(=O)N1CCC[C@H]1c1ncc(-c2ccc(C#Cc3ccc4nc([C@@H]5CCCN5C(=O)[C@@H](NC(=O)OC)C5CCCOC5)[nH]c4c3)cc2)[nH]1)C(C)C (stereo partly shown) [Compound 1244] cannot be ordered by EC50: under 1 nM for the first, under 1 nM for the second.

COC(=O)NC(C(=O)N1CCC[C@H]1c1nc2ccc(C#Cc3ccc4cc(-c5cnc([C@@H]6CCCN6C(=O)[C@H](NC(=O)OC6CCOCC6)c6ccccc6)[nH]5)ccc4n3)cc2[nH]1)C(C)C (stereo partly shown) [Compound 1291] and COC(=O)N[C@H](C(=O)N1CCC[C@H]1c1nc(C#N)c(C#Cc2ccc3cc(-c4cnc([C@@H]5CCCN5C(=O)[C@@H](NC(=O)OC)[C@@H](C)OC)[nH]4)ccc3c2)[nH]1)C(C)C [Compound 1268] cannot be ordered by EC50: under 1 nM for the first, under 1 nM for the second.

COC(=O)N[C@H](C(=O)N1CCC[C@H]1c1nc(C(F)(F)F)c(C#Cc2ccc3cc(-c4cnc([C@@H]5CCCN5C(=O)[C@@H](NC(=O)OC)[C@@H](C)OC)[nH]4)ccc3c2)[nH]1)C1CCCC1 [Compound 1263] showed an EC50 of under 1 nM.
